Results published in ChEMBL document CHEMBL5226286, “The application of isatin-based multicomponent-reactions in the quest for new bioactive and druglike molecules” (Eur J Med Chem, 2021).
Values after ≈ are worked out from the molar mass of the structure shown.

Columns and labels:
[1] = system: Mycobacterium tuberculosis variant bovis; assay: Antimycobacterial activity against active stage of Mycobacterium bovis BCG ATCC 35743 assessed as minimum inhibitory concentration by NR assay; type: functional
[2] = system: Mycobacterium tuberculosis variant bovis; assay: Antimycobacterial activity against dormant stage of Mycobacterium bovis BCG ATCC 35743 assessed as minimum inhibitory concentration by NR assay; type: functional

Compound	MIC [1] [µg/mL]	MIC [2] [µg/mL]
Cc1ccc(Cn2cc(CN3C(=O)C4(C(C#N)=C(N)Oc5cc(C)oc(=O)c54)c4cc(Cl)ccc43)nn2)cc1 (stereo not drawn)	5.24 (≈ 9.69 µM)	5.23 (≈ 9.67 µM)
Cc1ccc(Cn2cc(CN3C(=O)C4(C(C#N)=C(N)OC5=C4C(=O)CC(C)(C)C5)c4cc(Br)ccc43)nn2)cc1 (stereo not drawn)	2.87 (≈ 4.79 µM)	6.23 (≈ 10.4 µM)
CC1(C)CC(=O)C2=C(C1)OC(N)=C(C#N)C21C(=O)N(Cc2cn(Cc3ccc(Cl)cc3)nn2)c2ccc(Cl)cc21 (stereo not drawn)	2.87 (≈ 4.99 µM)	3.09 (≈ 5.37 µM)
Cc1ccc(Cn2cc(CN3C(=O)C4(C(C#N)=C(N)Oc5cc(C)oc(=O)c54)c4ccccc43)nn2)cc1 (stereo not drawn)	7.42 (≈ 14.6 µM)	5.36 (≈ 10.6 µM)
CO[C@H]1/C=C/O[C@@]2(C)Oc3c(C)c(O)c4c(O)c(c(/C=N/N5CCN(C)CC5)c(O)c4c3C2=O)NC(=O)/C(C)=C\C=C\[C@H](C)[C@H](O)[C@@H](C)[C@@H](O)[C@@H](C)[C@H](OC(C)=O)[C@@H]1C [RIFAMPIN]	0.45 (≈ 0.547 µM)	0.81 (≈ 0.984 µM)
CC1(C)CC(=O)C2=C(C1)OC(N)=C(C#N)C21C(=O)N(Cc2cn(Cc3ccc(Cl)cc3)nn2)c2ccc(Br)cc21 (stereo not drawn)	4.32 (≈ 6.97 µM)	3.16 (≈ 5.1 µM)
Cc1cc2c(c(=O)o1)C1(C(=O)N(Cc3cn(Cc4ccc(Cl)cc4)nn3)c3ccc(Cl)cc31)C(C#N)=C(N)O2 (stereo not drawn)	3.04 (≈ 5.42 µM)	7.73 (≈ 13.8 µM)
Cc1cc2c(c(=O)o1)C1(C(=O)N(Cc3cn(Cc4ccc(Cl)cc4)nn3)c3ccccc31)C(C#N)=C(N)O2 (stereo not drawn)	2.97 (≈ 5.64 µM)	4.35 (≈ 8.26 µM)
Cc1cc2c(c(=O)o1)C1(C(=O)N(Cc3cn(Cc4ccc(Cl)cc4)nn3)c3ccc(Br)cc31)C(C#N)=C(N)O2 (stereo not drawn)	4.12 (≈ 6.8 µM)	3.97 (≈ 6.55 µM)
